We go through 23 compounds from patent US8003785B2 (Takeda Pharmaceutical Company Limited, priority 2008, dated 2011).

Molecules are shown by their SMILES. pIC50: −log10 of the molar value.

The target of the first assay is T1, PLK1 (Homo sapiens, UniProt P53350).
T1 construct: Full-length, active GST-PLK1 is purified from Sf9 insect cells; made in house; host or cells: Sf9 insect cells
T1 sequence (P53350 whole entry): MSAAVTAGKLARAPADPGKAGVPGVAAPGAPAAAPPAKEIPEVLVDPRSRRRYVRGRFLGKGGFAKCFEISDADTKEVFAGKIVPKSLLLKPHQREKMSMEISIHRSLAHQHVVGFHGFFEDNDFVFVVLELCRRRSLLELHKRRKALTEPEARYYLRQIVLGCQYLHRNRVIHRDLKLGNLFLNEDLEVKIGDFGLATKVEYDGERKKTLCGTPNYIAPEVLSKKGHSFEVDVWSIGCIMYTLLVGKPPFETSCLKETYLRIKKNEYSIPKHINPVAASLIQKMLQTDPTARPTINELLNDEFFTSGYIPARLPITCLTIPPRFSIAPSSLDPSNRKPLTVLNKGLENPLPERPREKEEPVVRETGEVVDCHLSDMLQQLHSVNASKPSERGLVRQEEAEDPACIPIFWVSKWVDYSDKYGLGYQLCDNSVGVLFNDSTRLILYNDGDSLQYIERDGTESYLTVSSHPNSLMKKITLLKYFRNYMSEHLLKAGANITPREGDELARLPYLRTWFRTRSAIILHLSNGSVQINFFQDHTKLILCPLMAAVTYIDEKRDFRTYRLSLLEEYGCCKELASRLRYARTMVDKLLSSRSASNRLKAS
As to the kind of experiment: Biochemical Characterization Assay: HTRF kinase assay, GST-PLK1 phosphorylation of GST-p53. The note with it: GST-PLK1, GST-p53 substrate. The protocol:
Biochemical Characterization Assay
Full-length, active GST-PLK1 is purified from Sf9 insect cells, and full-length GST-p53 is purified from E. coli. Anti-phospho p53 antibody is from Cell Signaling Technology. Europium-conjugated anti-rabbit antibody is from PerkinElmer Life and Analytical Sciences. APC-conjugated anti-GST antibody is from Prozyme.
Six microliters of GST-PLK1 (3 ug/mL) in Kinase Assay Buffer are then added and the solution incubated at 37° C. for 35 minutes. Six microliters of solution containing 43 mM EDTA to stop the reaction and a 1:600 dilution of anti-phospho-p53 antibody in 20 mM HEPES pH 7, 50 mM NaCl, and 0.5 mg/mL BSA (Antibody Binding Buffer) are added and the solution incubated at 37° C. for 30 minutes. […] The HTRF signal is read on an Envision reader from PerkinElmer Life and Analytical Sciences.
As to `COc1cc(C(=O)O)ccc1Nc1ncc2c(n1)N([C@@H]1C[C@H]1c1ccccc1)CC(F)(F)C(=O)N2C` (relative stereo) [Example I-287, 4-[7,7-difluoro-5-methyl-6-oxo-9-(trans-2-phenyl-cyclopropyl)-6,7,8,9-tetrahydro-5H-pyrimido[4,5-b][1,4]diazepin-2-ylamino]-3-methoxy-benzoic acid], the pIC50 was less than 5.30. In the case of `COc1cc(C(=O)NC2CCN(C)CC2)ccc1Nc1ncc2c(n1)N([C@@H]1C[C@H]1c1ccccc1)CC(F)(F)C(=O)N2C` (relative stereo) [Example I-288, 4-[7,7-difluoro-5-methyl-6-oxo-9-(trans-2-phenyl-cyclopropyl)-6,7,8,9-tetrahydro-5H-pyrimido[4,5-b][1,4]diazepin-2-ylamino]-3-methoxy-N-(1-methyl-piperidin-4-yl)-benzamide], the pIC50 is 6.30 to 7.29. In the case of `COc1cc(C(N)=O)ccc1Nc1ncc2c(n1)N([C@@H]1C[C@H]1c1ccccc1)CC(F)(F)C(=O)N2C` (relative stereo) [Example I-289, 4-[7,7-difluoro-5-methyl-6-oxo-9-(trans-2-phenyl-cyclopropyl)-6,7,8,9-tetrahydro-5H-pyrimido[4,5-b][1,4]diazepin-2-ylamino]-3-methoxy-benzamide], the pIC50 is less than 5.30. In turn, `COc1cc(C(=O)NCCCN(C)C)ccc1Nc1ncc2c(n1)N([C@@H]1C[C@H]1c1ccccc1)CC(F)(F)C(=O)N2C` (relative stereo) [Example I-290, 4-[7,7-difluoro-5-methyl-6-oxo-9-(trans-2-phenyl-cyclopropyl)-6,7,8,9-tetrahydro-5H-pyrimido[4,5-b][1,4]diazepin-2-ylamino]-N-(3-dimethylamino-propyl)-3-methoxy-benzamide] gave a pIC50 of 6.30 to 7.29.

The assay is the same for the next values; noted with them: GST-PLK1, GST-p53 substrate, ATP.
`COc1cc(C(=O)NC(C)c2ccccc2)ccc1Nc1ncc2c(n1)N(C1CCCC1)CC(F)(F)C(=O)N2C` (racemic) [Example I-37, rac-4-(9-cyclopentyl-7,7-difluoro-5-methyl-6-oxo-6,7,8,9-tetrahydro-5H-pyrimido[4,5-b][1,4]diazepin-2-ylamino)-3-methoxy-N-(1-phenyl-ethyl)-benzamide] gave a pIC50 of 6.30 to 7.29.

As for `COc1cc(C(=O)N[C@@H]2CCN(C(=O)OCc3ccccc3)C[C@H]2O)ccc1Nc1ncc2c(n1)N(C1CCCC1)CC(F)(F)C(=O)N2C` (racemic) [Example I-54, rac-(3R,4R)-4-[4-(9-cyclopentyl-7,7-difluoro-5-methyl-6-oxo-6,7,8,9-tetrahydro-5H-pyrimido[4,5-b][1,4]diazepin-2-ylamino)-3-methoxy-benzoylamino]-3-hydroxy-piperidine-1-carboxylic acid benzyl ester], the pIC50 is 6.30 to 7.29.

For `COc1cc(C(=O)N[C@@H]2CCN(C(=O)OCc3ccccc3)C[C@H]2OC)ccc1Nc1ncc2c(n1)N(C1CCCC1)CC(F)(F)C(=O)N2C` (racemic) [Example I-55, rac-(3R,4R)-4-[4-(9-cyclopentyl-7,7-difluoro-5-methyl-6-oxo-6,7,8,9-tetrahydro-5H-pyrimido[4,5-b][1,4]diazepin-2-ylamino)-3-methoxy-benzoylamino]-3-methoxy-piperidine-1-carboxylic acid benzyl ester], the pIC50 is 6.30 to 7.29.

`COc1cc(C(=O)N[C@@H]2CCN(C(=O)OC(C)(C)C)C[C@@H]2OC)ccc1Nc1ncc2c(n1)N(C1CCCC1)CC(F)(F)C(=O)N2C` (racemic) [Example I-56, rac-(3S,4R)-4-[4-(9-cyclopentyl-7,7-difluoro-5-methyl-6-oxo-6,7,8,9-tetrahydro-5H-pyrimido[4,5-b][1,4]diazepin-2-ylamino)-3-methoxy-benzoylamino]-3-methoxy-piperidine-1-carboxylic acid tert-butyl ester] had a negative-log IC50 (pIC50) of 7.30 to 9.00.

Compound `COc1cc(C(=O)N[C@@H]2CCNC[C@@H]2OC)ccc1Nc1ncc2c(n1)N(C1CCCC1)CC(F)(F)C(=O)N2C` (racemic) [Example I-57, rac-(3S,4R)-4-(9-cyclopentyl-7,7-difluoro-5-methyl-6-oxo-6,7,8,9-tetrahydro-5H-pyrimido[4,5-b][1,4]diazepin-2-ylamino)-3-methoxy-N-(3-methoxy-piperidin-4-yl)-benzamide] gave a pIC50 of 7.30 to 9.00. On to `COc1cc(C(=O)N[C@H]2CN(C(=O)OCc3ccccc3)CC[C@@H]2OC)ccc1Nc1ncc2c(n1)N(C1CCCC1)CC(F)(F)C(=O)N2C` (racemic) [Example I-58, rac-(3S,4S)-3-[4-(9-cyclopentyl-7,7-difluoro-5-methyl-6-oxo-6,7,8,9-tetrahydro-5H-pyrimido[4,5-b][1,4]diazepin-2-ylamino)-3-methoxy-benzoylamino]-4-methoxy-piperidine-1-carboxylic acid benzyl ester], for which the pIC50 was 6.30 to 7.29. Compound `COc1cc(C(=O)O)ccc1Nc1ncc2c(n1)N(C1CCC1)CC(F)(F)C(=O)N2C` [Example I-1, 4-(9-cyclobutyl-7,7-difluoro-5-methyl-6-oxo-6,7,8,9-tetrahydro-5H-pyrimido[4,5-b][1,4]diazepin-2-ylamino)-3-methoxy-benzoic acid] had a pIC50 of 7.30 to 9.00. Consider `COc1cc(C(N)=O)ccc1Nc1ncc2c(n1)N(C1CCC1)CC(F)(F)C(=O)N2C` [Example I-2, 4-(9-cyclobutyl-7,7-difluoro-5-methyl-6-oxo-6,7,8,9-tetrahydro-5H-pyrimido[4,5-b][1,4]diazepin-2-ylamino)-3-methoxy-benzamide], for which the pIC50 was 7.30 to 9.00. Consider `CNC(=O)c1ccc(Nc2ncc3c(n2)N(C2CCC2)CC(F)(F)C(=O)N3C)c(OC)c1` [Example I-3, 4-(9-cyclobutyl-7,7-difluoro-5-methyl-6-oxo-6,7,8,9-tetrahydro-5H-pyrimido[4,5-b][1,4]diazepin-2-ylamino)-3-methoxy-N-methyl-benzamide], for which the pIC50 is 7.30 to 9.00. The compound `COc1cc(C(=O)NC2CCN(C)CC2)ccc1Nc1ncc2c(n1)N(C1CCC1)CC(F)(F)C(=O)N2C` [Example I-4, 4-(9-cyclobutyl-7,7-difluoro-5-methyl-6-oxo-6,7,8,9-tetrahydro-5H-pyrimido[4,5-b][1,4]diazepin-2-ylamino)-3-methoxy-N-(1-methyl-piperidin-4-yl)-benzamide] showed a negative logarithm of the IC50 (pIC50) of 7.30 to 9.00. `COc1cc(C(=O)NC2CCNCC2)ccc1Nc1ncc2c(n1)N(C1CCC1)CC(F)(F)C(=O)N2C` [Example I-5, 4-(9-cyclobutyl-7,7-difluoro-5-methyl-6-oxo-6,7,8,9-tetrahydro-5H-pyrimido[4,5-b][1,4]diazepin-2-ylamino)-3-methoxy-N-piperidin-4-yl-benzamide] gave a pIC50 of 7.30 to 9.00. `COc1cc(C(=O)N2CCC(N)CC2)ccc1Nc1ncc2c(n1)N(C1CCC1)CC(F)(F)C(=O)N2C` [Example I-6, 2-[4-(4-amino-piperidine-1-carbonyl)-2-methoxy-phenylamino]-9-cyclobutyl-7,7-difluoro-5-methyl-5,7,8,9-tetrahydro-pyrimido[4,5-b][1,4]diazepin-6-one] showed a pIC50 of 6.30 to 7.29. As to `COc1cc(C(=O)NC2CCOCC2)ccc1Nc1ncc2c(n1)N(C1CCC1)CC(F)(F)C(=O)N2C` [Example I-7, 4-(9-cyclobutyl-7,7-difluoro-5-methyl-6-oxo-6,7,8,9-tetrahydro-5H-pyrimido[4,5-b][1,4]diazepin-2-ylamino)-3-methoxy-N-(tetrahydro-pyran-4-yl)-benzamide], the pIC50 was 7.30 to 9.00. Consider `COc1cc(C(=O)NCCN(C)C)ccc1Nc1ncc2c(n1)N(C1CCC1)CC(F)(F)C(=O)N2C` [Example I-8, 4-(9-cyclobutyl-7,7-difluoro-5-methyl-6-oxo-6,7,8,9-tetrahydro-5H-pyrimido[4,5-b][1,4]diazepin-2-ylamino)-N-(2-dimethylamino-ethyl)-3-methoxy-benzamide], for which the negative-log IC50 (pIC50) is 7.30 to 9.00.

`COc1cc(C(=O)NCCCN(C)C)ccc1Nc1ncc2c(n1)N(C1CCC1)CC(F)(F)C(=O)N2C` [Example I-9, 4-(9-cyclobutyl-7,7-difluoro-5-methyl-6-oxo-6,7,8,9-tetrahydro-5H-pyrimido[4,5-b][1,4]diazepin-2-ylamino)-N-(3-dimethylamino-propyl)-3-methoxy-benzamide] showed a pIC50 of 7.30 to 9.00. In the case of `CCN1CCC(NC(=O)c2ccc(Nc3ncc4c(n3)N(C3CCC3)CC(F)(F)C(=O)N4C)c(OC)c2)CC1` [Example I-10, 4-(9-cyclobutyl-7,7-difluoro-5-methyl-6-oxo-6,7,8,9-tetrahydro-5H-pyrimido[4,5-b][1,4]diazepin-2-ylamino)-N-(1-ethyl-piperidin-4-yl)-3-methoxy-benzamide], the pIC50 was 7.30 to 9.00.

`CN1C(=O)C(F)(F)CN(C2CCC2)c2nc(Nc3ccc(C(=O)O)cc3)ncc21` [Example I-11, 4-(9-cyclobutyl-7,7-difluoro-5-methyl-6-oxo-6,7,8,9-tetrahydro-5H-pyrimido[4,5-b][1,4]diazepin-2-ylamino)-benzoic acid] gave a pIC50 of 6.30 to 7.29. In turn, `CN1C(=O)C(F)(F)CN(C2CCC2)c2nc(Nc3ccc(C(N)=O)cc3)ncc21` [Example I-12, 4-(9-cyclobutyl-7,7-difluoro-5-methyl-6-oxo-6,7,8,9-tetrahydro-5H-pyrimido[4,5-b][1,4]diazepin-2-ylamino)-benzamide] showed a negative logarithm of the IC50 (pIC50) of 6.30 to 7.29. Regarding `CNC(=O)c1ccc(Nc2ncc3c(n2)N(C2CCC2)CC(F)(F)C(=O)N3C)cc1` [Example I-13, 4-(9-cyclobutyl-7,7-difluoro-5-methyl-6-oxo-6,7,8,9-tetrahydro-5H-pyrimido[4,5-b][1,4]diazepin-2-ylamino)-N-methyl-benzamide], the negative logarithm of the IC50 (pIC50) is 6.30 to 7.29.
